Reference: BindingDB's records for doi:10.1016/j.bioorg.2015.03.004 (Suez Canal University, 2015)

Biological target: Vascular endothelial growth factor receptor 2 (Homo sapiens, UniProt P35968)
Test: ADP-GloTM Assay
Description: The protein kinase assays used to determine IC50 value were performed using ADP-GloTM assay kit. The assay was started by incubating the reaction mixture in a 96-well plate at 30 °C for 30 min. After the 30 min incubation period, the assay was terminated by the addition of […] of ADPGloTM Reagent. The 96-well plate was shaken and then incubated for 40 min at ambient temperature, […] of kinase detection reagent was added, the 96-well reaction plate was then read using ADP-GloTM luminescences protocol on GloMaxTM plate reader. Blank control waqs set up that included all the assay components except the addition of appropriate substrate (replace with equal volume of kinase assay buffer).

Vascular endothelial growth factor receptor 2, sequence (P35968 whole entry): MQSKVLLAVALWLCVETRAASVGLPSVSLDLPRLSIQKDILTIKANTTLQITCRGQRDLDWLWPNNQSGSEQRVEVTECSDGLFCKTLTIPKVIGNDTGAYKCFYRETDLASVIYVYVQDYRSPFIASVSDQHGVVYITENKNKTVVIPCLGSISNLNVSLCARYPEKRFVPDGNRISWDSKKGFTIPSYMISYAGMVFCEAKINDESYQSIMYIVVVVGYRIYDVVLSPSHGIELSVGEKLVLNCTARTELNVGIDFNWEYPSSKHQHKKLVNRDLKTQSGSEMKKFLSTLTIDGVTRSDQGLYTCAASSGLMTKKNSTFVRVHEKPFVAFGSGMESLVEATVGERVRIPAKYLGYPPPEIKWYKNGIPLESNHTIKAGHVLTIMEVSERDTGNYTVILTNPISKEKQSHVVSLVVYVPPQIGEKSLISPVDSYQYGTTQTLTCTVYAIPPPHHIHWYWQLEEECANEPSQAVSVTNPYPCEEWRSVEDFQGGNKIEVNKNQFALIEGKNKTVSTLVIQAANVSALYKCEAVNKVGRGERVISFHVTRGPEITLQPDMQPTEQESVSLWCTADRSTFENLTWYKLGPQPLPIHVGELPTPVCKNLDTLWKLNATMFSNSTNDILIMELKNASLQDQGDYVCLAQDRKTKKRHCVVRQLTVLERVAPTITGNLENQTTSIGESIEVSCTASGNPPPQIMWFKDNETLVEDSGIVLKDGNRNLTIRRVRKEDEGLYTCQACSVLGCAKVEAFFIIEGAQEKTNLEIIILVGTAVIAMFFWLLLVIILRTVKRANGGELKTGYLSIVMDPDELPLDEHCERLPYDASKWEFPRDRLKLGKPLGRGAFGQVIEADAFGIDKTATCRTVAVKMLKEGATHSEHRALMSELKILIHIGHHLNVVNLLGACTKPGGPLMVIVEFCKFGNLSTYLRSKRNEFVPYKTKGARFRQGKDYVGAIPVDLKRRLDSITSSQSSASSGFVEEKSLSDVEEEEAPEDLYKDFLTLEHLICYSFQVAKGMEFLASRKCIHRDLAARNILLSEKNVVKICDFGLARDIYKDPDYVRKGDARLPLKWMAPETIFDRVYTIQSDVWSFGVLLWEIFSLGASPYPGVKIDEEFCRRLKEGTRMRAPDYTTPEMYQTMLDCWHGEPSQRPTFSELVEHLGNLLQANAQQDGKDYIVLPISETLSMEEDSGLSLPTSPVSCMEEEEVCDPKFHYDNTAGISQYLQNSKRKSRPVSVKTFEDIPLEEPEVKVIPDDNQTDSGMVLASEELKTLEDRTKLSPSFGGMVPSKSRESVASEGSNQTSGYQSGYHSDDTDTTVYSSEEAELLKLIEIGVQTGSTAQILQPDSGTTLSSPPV

IC50: 2.6 µM
SMILES: Cc1cc(C)c2c(Nc3ncnc4c3sc3nc(C)cc(C)c34)csc2n1 [N-(4,6-dimethylthieno[2,3-b]pyridine)-7,9-dimethylpyrido[30,20:4,5]thieno[3,2-d]pyrimidin-4-amine (9d)]
